Experimental data reported in PubChem BioAssay (NCI).
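Where inhibition never reached the appropriate level, the endpoint shown equals the highest concentration tested. Otherwise, values were interpolated linearly from a five-concentration, 48-hour dose response in 96-well plates. GI50 marks 50% less growth. Definition used: TGI = concentration required for complete inhibition of growth.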

Experiments:
Test in all cases: inhibition of tumour cell growth, NCI panel, 48 h; in the data active = GI50 below about 0.43 µM; inactive = the rest
786-0 renal = test system: 786-0 renal
A498 renal = test system: A498 renal
A549 NSCLC = test system: A549 NSCLC
ACHN renal = test system: ACHN renal
BT-549 breast = test system: BT-549 breast
CCRF-CEM leukemia = test system: CCRF-CEM leukemia
COLO 205 colon = test system: COLO 205 colon
DU-145 prostate = test system: DU-145 prostate
EKVX NSCLC = test system: EKVX NSCLC
HCC-2998 colon = test system: HCC-2998 colon
HCT-116 colon = test system: HCT-116 colon
HCT-15 colon = test system: HCT-15 colon
HL-60(TB) leukemia = test system: HL-60(TB) leukemia
HOP-62 NSCLC = test system: HOP-62 NSCLC
HOP-92 NSCLC = test system: HOP-92 NSCLC
HS 578T breast = test system: HS 578T breast
HT29 colon = test system: HT29 colon
IGROV1 ovarian = test system: IGROV1 ovarian
K-562 leukemia = test system: K-562 leukemia
KM12 colon = test system: KM12 colon
LOX IMVI melanoma = test system: LOX IMVI melanoma
M14 melanoma = test system: M14 melanoma
MALME-3M melanoma = test system: MALME-3M melanoma
MCF7 breast = test system: MCF7 breast
MDA-MB-231 breast = test system: MDA-MB-231 breast
MDA-MB-435 = test system: MDA-MB-435
MOLT-4 leukemia = test system: MOLT-4 leukemia
NCI-H226 lung = test system: NCI-H226 lung
NCI-H23 lung = test system: NCI-H23 lung
NCI-H460 lung = test system: NCI-H460 lung
NCI-H522 lung = test system: NCI-H522 lung
NCI/ADR-RES ovarian = test system: NCI/ADR-RES ovarian
OVCAR-3 ovarian = test system: OVCAR-3 ovarian
OVCAR-4 ovarian = test system: OVCAR-4 ovarian
OVCAR-5 ovarian = test system: OVCAR-5 ovarian
OVCAR-8 ovarian = test system: OVCAR-8 ovarian
PC-3 prostate = test system: PC-3 prostate
RPMI-8226 leukemia = test system: RPMI-8226 leukemia
RXF 393 renal = test system: RXF 393 renal
SF-268 CNS = test system: SF-268 CNS
SF-295 CNS = test system: SF-295 CNS
SF-539 CNS = test system: SF-539 CNS
SK-MEL-2 melanoma = test system: SK-MEL-2 melanoma
SK-MEL-28 melanoma = test system: SK-MEL-28 melanoma
SK-MEL-5 melanoma = test system: SK-MEL-5 melanoma
SK-OV-3 ovarian = test system: SK-OV-3 ovarian
SN12C renal = test system: SN12C renal
SNB-19 CNS = test system: SNB-19 CNS
SNB-75 CNS = test system: SNB-75 CNS
SR leukemia = test system: SR leukemia
SW-620 colon = test system: SW-620 colon
T-47D breast = test system: T-47D breast
TK-10 renal = test system: TK-10 renal
U251 CNS = test system: U251 CNS
UACC-257 melanoma = test system: UACC-257 melanoma
UACC-62 melanoma = test system: UACC-62 melanoma
UO-31 renal = test system: UO-31 renal

COC(=O)C(C)NP(=O)(OCc1ccc(Cn2cnc3c(N)ncnc32)cc1)Oc1ccccc1 (centres undefined)
> 100 µM: TGI (786-0 renal) | TGI (A498 renal) | TGI (A549 NSCLC) | TGI (ACHN renal) | TGI (CCRF-CEM leukemia) | TGI (COLO 205 colon) | TGI (DU-145 prostate) | TGI (EKVX NSCLC) | TGI (HCT-15 colon) | TGI (HL-60(TB) leukemia) | TGI (HOP-62 NSCLC) | TGI (HOP-92 NSCLC) | TGI (HT29 colon) | TGI (IGROV1 ovarian) | TGI (K-562 leukemia) | TGI (M14 melanoma) | TGI (MCF7 breast) | TGI (MDA-MB-231 breast) | TGI (MDA-MB-435) | TGI (MOLT-4 leukemia) | TGI (NCI-H226 lung) | TGI (NCI-H23 lung) | TGI (NCI-H460 lung) | TGI (NCI/ADR-RES ovarian) | TGI (OVCAR-4 ovarian) | TGI (OVCAR-5 ovarian) | TGI (OVCAR-8 ovarian) | TGI (PC-3 prostate) | TGI (RXF 393 renal) | TGI (SF-268 CNS) | TGI (SF-295 CNS) | TGI (SF-539 CNS) | TGI (SK-MEL-2 melanoma) | TGI (SK-OV-3 ovarian) | TGI (SN12C renal) | TGI (SNB-19 CNS) | TGI (SNB-75 CNS) | TGI (SR leukemia) | TGI (SW-620 colon) | TGI (T-47D breast) | TGI (TK-10 renal) | TGI (U251 CNS) | TGI (UACC-257 melanoma) | TGI (UO-31 renal)
84.4 µM: TGI (HCC-2998 colon)
49.7 µM: TGI (HS 578T breast)
65.3 µM: TGI (RPMI-8226 leukemia)
inactive: GI50 (786-0 renal) > 100 µM | GI50 (A498 renal) > 100 µM | GI50 (A549 NSCLC) > 84.2 µM | GI50 (ACHN renal) > 100 µM | GI50 (BT-549 breast) 24.2 µM | GI50 (CCRF-CEM leukemia) 50 µM | GI50 (COLO 205 colon) > 91.6 µM | GI50 (DU-145 prostate) > 100 µM | GI50 (EKVX NSCLC) > 81.2 µM | GI50 (HCC-2998 colon) 27.7 µM | GI50 (HCT-116 colon) 26 µM | GI50 (HCT-15 colon) > 100 µM | GI50 (HL-60(TB) leukemia) 79.9 µM | GI50 (HOP-62 NSCLC) > 68.6 µM | GI50 (HOP-92 NSCLC) 29.8 µM | GI50 (HS 578T breast) 15.5 µM | GI50 (HT29 colon) > 67.8 µM | GI50 (IGROV1 ovarian) 39.1 µM | GI50 (K-562 leukemia) > 93.1 µM | GI50 (KM12 colon) 25.2 µM | GI50 (LOX IMVI melanoma) 21.4 µM | GI50 (M14 melanoma) 55.4 µM | GI50 (MALME-3M melanoma) 20.8 µM | GI50 (MCF7 breast) 36.8 µM | GI50 (MDA-MB-231 breast) > 63.4 µM | GI50 (MDA-MB-435) 43 µM | GI50 (MOLT-4 leukemia) 32.2 µM | GI50 (NCI-H226 lung) > 93.5 µM | GI50 (NCI-H23 lung) 36.5 µM | GI50 (NCI-H460 lung) 67.9 µM | GI50 (NCI-H522 lung) 28.4 µM | GI50 (NCI/ADR-RES ovarian) > 100 µM | GI50 (OVCAR-3 ovarian) 34.7 µM | GI50 (OVCAR-4 ovarian) > 100 µM | GI50 (OVCAR-5 ovarian) > 100 µM | GI50 (OVCAR-8 ovarian) 76.8 µM | GI50 (PC-3 prostate) 31.3 µM | GI50 (RPMI-8226 leukemia) 17.1 µM | GI50 (RXF 393 renal) 81.5 µM | GI50 (SF-268 CNS) 36.9 µM | GI50 (SF-295 CNS) > 78.9 µM | GI50 (SF-539 CNS) > 100 µM | GI50 (SK-MEL-2 melanoma) > 73.9 µM | GI50 (SK-MEL-28 melanoma) 30.4 µM | GI50 (SK-MEL-5 melanoma) 6.39 µM | GI50 (SK-OV-3 ovarian) > 100 µM | GI50 (SN12C renal) 73.4 µM | GI50 (SNB-19 CNS) > 64.2 µM | GI50 (SNB-75 CNS) 40.1 µM | GI50 (SR leukemia) > 100 µM | GI50 (SW-620 colon) > 83.5 µM | GI50 (T-47D breast) > 56.7 µM | GI50 (TK-10 renal) > 100 µM | GI50 (U251 CNS) 37.3 µM | GI50 (UACC-257 melanoma) > 100 µM | GI50 (UACC-62 melanoma) 28.6 µM | GI50 (UO-31 renal) > 100 µM
> 96.1 µM: TGI (KM12 colon)
> 94.1 µM: TGI (UACC-62 melanoma)
> 84.9 µM: TGI (SK-MEL-28 melanoma)
> 69 µM: TGI (NCI-H522 lung)
> 82.1 µM: TGI (OVCAR-3 ovarian)
72.5 µM: TGI (BT-549 breast)
57 µM: TGI (MALME-3M melanoma)
53.8 µM: TGI (LOX IMVI melanoma)
63.4 µM: TGI (HCT-116 colon)
33.4 µM: TGI (SK-MEL-5 melanoma)
